Experimental findings from US8242058B2, “Reagents and methods for appending functional groups to proteins” (Wisconsin Alumni Research Foundation, priority 2006, dated 2012) are described below.

A short description of test [1]: Kinetics of thioester cleavage (release of thiophenolate, absorbance at 410 nm). The following applies: pH 7.0, 25° C. The procedure: To identify the optimal nitrogen nucleophile for a thioester, kinetic studies were performed on a model chromogenic thioester: AcGlySC6H4-p-NO2. The rate of release of the thiophenolate anion was monitored by measuring the change in absorbance at 410 nm (Scheme 1). Nitrogen nucleophiles with conjugate-acid pKa values ranging from 4.6 to 10.6 (Table 1) were used in the experiments. The logarithmic values of the second-order rate constants (k2) of the unprotonated primary amines were plotted against the pKa values of their conjugate acids to yield the Brønsted plot shown in FIG. 2A. The data were fitted to the equation^[26]: log k2=log(AB)+(β+β′)pKa−log(A10^βpK^a+B10^β′pK^a) (1) In eq 1, A and B are constants, β′ is the slope of the former part of the Brønsted plot, and β is the slope of the latter part.
Kinetics of thioester cleavage: AcGlySC6H4-p-NO2 was dissolved in anhydrous acetonitrile to a concentration of 0.45 mM and used immediately. Amine solutions (except CF3CH2NH2.HCl) were prepared by dissolving the amine hydrochloride salts in 0.10 M sodium phosphate buffer at pH 7.0 to a concentration of 0.15 M. Reaction mixtures were prepared in a 1,1-mL volume and equilibrated at 25° C. All reactions contained […] acetonitrile. The ionic strength of each reaction mixture was I=0.22-0.25. All reactions were carried out with a large excess of amine and followed pseudo-first-order kinetics. In a cuvette containing 0.10 M sodium phosphate buffer at pH 7.0 (967 μL), amine solution (0.15 M, 100 μL) was added and the absorbance at 410 nm was adjusted to zero. The thioester (33 μL of a 0.45 mM solution in acetonitrile) was then added to the cuvette, and the absorbance at 410 nm was monitored with time (ε=11,230 M^−1cm^−1 for p-nitrothiophenolate anion). […] This value is likely to be lower in an aqueous buffer, such that the ionization of the p-nitrothiophenol product is virtually complete in all our assays. The final concentration of the thioester in the reaction was 13.64 μM and the final concentration of the amines (except CF3CH2NH2.HCl) was 13.64 mM. Each reaction was performed in triplicate. The reactions were allowed to go to completion, and the t1/2 was determined from the kinetic trace. The t1/2 was corrected by subtracting the t1/2 for hydrolysis from the observed value. Pseudo-first-order rate constants were calculated by using the equation k1=0.693/t1/2. Second-order rate constants were obtained by dividing each observed first-order rate constant by the concentration of free amine. Logarithmic values of second-order rate constants were plotted against the pKa values of the conjugate acids of the respective amines to yield a Brønsted plot.
Using a higher buffer concentration was not ideal, as that would increase the ionic strength to a much value much larger than that in other reaction mixtures. To overcome these problems, the reaction with CF3CH2NH2 was carried out using 40.92 mM CF3CH2NH2.HCl and allowing the pH of the reaction mixture to decrease to 5.8. The observed t12 was corrected by subtracting the t12 for hydrolysis at pH 5.8. The second-order rate constant was calculated by accounting for the concentration of free amine at pH 5.8, and the resulting value was used in the Brønsted plot. The first-order rate constant thus obtained was not compared to those for the other nucleophiles.

Test [2] deals with T1, Met(−1)RNase A-Gly-mxe intein thioester (UniProt P20533+P61823).
T1 construct: made in house; host or cells: E. coli BL21 (DE3), plasmid pJK01
T1 sequence (P61823+P20533 with tags, fused parts or gaps): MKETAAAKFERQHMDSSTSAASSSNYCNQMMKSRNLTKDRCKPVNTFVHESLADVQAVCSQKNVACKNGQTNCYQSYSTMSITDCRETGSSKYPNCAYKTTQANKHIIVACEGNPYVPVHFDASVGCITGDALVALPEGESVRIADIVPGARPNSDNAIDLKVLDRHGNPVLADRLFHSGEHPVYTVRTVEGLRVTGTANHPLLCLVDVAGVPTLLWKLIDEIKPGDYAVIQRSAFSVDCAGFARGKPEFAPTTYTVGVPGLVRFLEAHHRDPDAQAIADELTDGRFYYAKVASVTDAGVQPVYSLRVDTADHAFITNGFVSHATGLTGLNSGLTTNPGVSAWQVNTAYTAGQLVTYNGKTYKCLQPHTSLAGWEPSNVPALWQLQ
Kind of test: On-resin cleavage of the intein fusion protein thioester. The following applies: on chitin resin. The source says: Next, we sought to use our bifunctional reagents to install an azido group at the C terminus of a model protein. As our protein, we chose bovine pancreatic ribonuclease (RNase A), which has been the object of much seminal work in protein chemistry and has been manipulated previously with expressed protein ligation. RNase A has valine as its C-terminal residue. A valine residue at the C terminus of a target protein is known to have a debilitating effect on the cleavage efficiency of protein-intein thioesters. To avert this problem, we inserted a glycine residue between the C terminus of RNase A and the intein. The resulting Met(−1)RNase A-Gly-mxe intein-chitin-binding domain fusion protein (MW ˜36 kDa) was produced in E. coli, and the cell lysate was loaded onto chitin resin. Azides 1 and 2 were used to induce the on-resin cleavage of the fusion protein. […] The purity of the azido-RNase A (even upon elution from the chitin column) was apparent from SDS-PAGE analysis (FIG. 3A); the integrity of the azido-RNase A was verified by using MALDI-TOF mass spectrometry (FIG. 3B). This procedure produced an overall yield of ˜1 mg of purified azido-RNase A per liter of E. coli culture. […]

Consider `[N-]=[N+]=NCCNC(=O)CNN` [azide 1, H2NNHCH2CONHCH2CH2N3], for which, in test [1], the “rate constants (k2 and k1) for thioester cleavage” value is “indistinguishable from those of the α-hydrazino acetyl group”. In test [2], the “efficiency of cleaving the protein-intein thioester” value is recorded as “much more effective than azide 2”.
